The test system of assay [1] is NMU-induced breast carcinomas of BUF/N rats. In words: effect on growth of NMU-induced breast carcinomas. The assay is classed as in vivo, rat. The method, then:
The animal model for human mammary carcinomas developed by Gullino et al. (P. M. Gullino, H. M. Pettigrew, and F. H. Grantham, J. Natl. Cancer Inst., 54, 401-414 (1975)) was used for this evaluation of 5α-DHNET.N-Nitrosomethylurea (NMU), wet with 3% acetic acid, was dissolved in distilled water (10 mg/ml) and given in three intravenous injections at a dose of 50 mg/kg body weight to BUF/N inbred female rats of 50 days of age on the first injection. The second injection was 4 weeks and the third injection was 8 weeks after the initial administration. The onset of tumors was monitored by daily visual inspection and by palpation of the mammary regions three times a week. The increase in tumor size was monitored by vernier caliper measurements of the subcutaneous mass. One-half the average of the longest and shortest tumor diameters was taken as the value of r in the formula 4/3 πr^3 used to estimate tumor volume. 5α-DHNET in sesame oil was given i.p. daily at a dose of 50 mg/kg body weight/day for 3 weeks to BUF/N female rats having at least one tumor, 2 cm or larger. The number and size of the rumors were monitored on 12 treated and 13 vehicle-only control animals. The mean initial volume of the tumors was 5.10 and 5.53 ml for the control and treated group, respectively. While the tumors in the control group grew very rapidly, growth arrest was clearly observed in 75% (9/12) of the treated group. The death rate was lower in the treated group (3/12 in 4 weeks) than in the control (5/13 in 3 weeks). […] Averaged relative tumor volume is compared in FIG. 7. This also indicates the suppression of tumor growth by the 5α-DHNET treatment. While 24 new tumors developed in 9 control rats in 3 weeks, only 7 developed in 11 treated rats.

For another assay, the target named is T1, rat ovarian aromatase (Rattus norvegicus, UniProt P22443).
T1 construct: from tissue; host or cells: ovaries of BUF/N inbred female rats, 105,000 x g precipitate of the homogenate
T1 sequence (P22443 1-508): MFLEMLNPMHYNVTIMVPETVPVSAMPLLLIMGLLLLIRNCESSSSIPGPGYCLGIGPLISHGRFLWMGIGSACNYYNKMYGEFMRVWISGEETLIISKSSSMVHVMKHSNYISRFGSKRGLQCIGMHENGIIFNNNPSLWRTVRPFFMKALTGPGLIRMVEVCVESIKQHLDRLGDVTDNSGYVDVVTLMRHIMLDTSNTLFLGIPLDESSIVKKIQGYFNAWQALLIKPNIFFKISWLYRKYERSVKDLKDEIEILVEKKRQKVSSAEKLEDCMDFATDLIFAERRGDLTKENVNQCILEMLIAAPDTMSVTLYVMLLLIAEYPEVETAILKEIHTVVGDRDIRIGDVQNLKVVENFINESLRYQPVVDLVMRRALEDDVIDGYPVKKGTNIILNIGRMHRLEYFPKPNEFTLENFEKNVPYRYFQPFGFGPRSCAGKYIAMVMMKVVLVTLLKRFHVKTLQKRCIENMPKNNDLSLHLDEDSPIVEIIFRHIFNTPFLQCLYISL
In words: in vivo effect on rat ovarian aromatase activity (3H-water method). The method, then: 5α-DHNET (30 mg/ml sesame oil suspension) was injected s.c. twice daily for four days at a dose of 50 mg/kg body weight/day to BUF/N inbred female rats (50-80 days old) showing regular 4-day estrus cycles starting on the estrus day. The control group received injections of sesame oil in the same manner. Both ovaries were removed 3-4 hours after the final injection. The 105,000×g precipitate fraction of the ovarian homogenate was used for the aromatase assay. Aromatase activity was determined by the ^3 H-water method (F. L. Bellino, S. S. H. Gilani, S. S. Eng, Y. Osawa and W. L. Duax, Biochemistry, 15, 4730-4736 (1976)). The sedimented ovarian enzyme preparation was homogenized in 0.1 M phosphate buffer (pH 7.5) and incubated with [1β-^3 H, 4-^14 C]androstenedione (3.18×10^5 dpm ^3 H, 1.18×10^4 dpm ^14 C, 100.2 ng), NADPH (1 mg) and BSA (5 mg) in 0.1 M phosphate buffer (pH 7.5) in a total volume of 1.5 ml for 30 min at 37° C. Trichloroacetic acid solution (0.2 ml of 10% aqueous solution) was added to stop the enzyme reaction. Activated charcoal was added to the mixture and the spun supernatant was passed through a cotton plugged disposable pipet. The filtrate was counted for simultaneous ^3 H and ^14 C in a liquid scintillation spectrophotometer. The ^3 H-water released from the 1β-^3 H labeled androgen quantitatively corresponds to estrogen formation. The results of the in vivo aromatase suppression assay with 5α-DHNET, 6β-bromoandrostenedione (6β-BRA), and 6α-bromoandrostenedione (6α-BRA) are given in FIGS. 3, 4, and 5, respectively. 5α-DHNET suppressed 67% of the ovarian aromatase, whereas 6β-bromoandrostenedione suppressed 72% and 6α-bromoandrostenedione only an insignificant 10%.
A test of the acetate (C2) and n-butyrate (C4) on the in vivo effect on Ovarian Aromatase Activity was conducted. […] All procedures are the same as described in the above examples. […] The slightly better results obtained with the N-butyrate may be due to its higher solubility in sesame oil, indicating a higher retention in the body.

The test system of assay [2] is NMU-induced breast carcinomas of BUF/N rats. In words: effect on breast tumor incidence, protocol II. It is filed as in vivo, rat. The method, then: The preventive and suppressive effect of 5α-DHNET on breast carcinomas was further examined in order to ascertain that this agent is effective under general conditions rather than limited to a specifically controlled protocol. Only a single dose of NMU was given to the BUF/N rats at 50th day of age and an oophorectomy was carried our at the 6th week after the NMU injection. The 5α-DHNET group received the agent for one week starting at the 6th week at a dose of 50 mg/kg body weight/day as given in FIG. 11. Monitoring was carried out as described in Example 4. After 41 weeks of observation, the tumor incidence was 65%, 33%, and 38% for the control, 5α-DHNET, and OVX group, respectively. The average number of tumors per tumor carrying rat was 2.6, 1.5, and 1.0 for the control, 5α-DHNET, and OVX group, respectively.

On to `C#C[C@]1(O)CC[C@H]2[C@@H]3CC[C@H]4CC(=O)CC[C@@H]4[C@H]3CC[C@@]21C` [5α-DHNET, 5α-dihydro-19-norethisterone], for which the “effect on growth of breast carcinomas” value in assay [1] (50 mg/kg body weight/day daily for three weeks) is on record as “significantly suppressed the growth of breast carcinomas”. For the same molecule, in assay [1] (50 mg/kg body weight/day i.p. for 3 weeks, 9/12 treated), the “animals with growth arrest of tumors” value stood at 75%. Besides, the death rate in assay [1] (50 mg/kg body weight/day i.p. for 3 weeks, in 4 weeks) was 3/12. Further, the “initially observed tumors disappeared” value in assay [1] (3 week period, 6/47) was 13%. In assay [1] (3 week period, 20/48), this molecule came in with a tumors regressed of 42%. In assay [1] (3 week period, 28/48), the tumors growing was found to be 58%. Besides, in assay [1] (3 wk), the “Total No. of Tumors disappeared” value is given as 6, the “Total No. of Tumors growing” value came to 28 and the “Total No. of Tumors regressed” value is 20. For the same molecule, in assay [1] (another 3 weeks after stopping), the “share of responded animals maintained without a growth of tumors after stopping administration” value is given as “approximately half”. Besides, in assay [1] (end of 3 wk treatment, 11 rats), the “Total No. of Tumors 3 wk” value worked out at 48. Also, the “Total No. of Tumors newly developed” value in assay [1] (in 3 weeks, 11 treated rats) stood at 7. Further, the “Total No. of Tumors start” value in assay [1] (start of treatment, 11 rats) turned out to be 47. Moreover, at rat ovarian aromatase (50 mg/kg body weight/day s.c. twice daily for four days, 4-day cycling BUF/N rats), the “suppression of the ovarian aromatase activity” value is 67%. Besides, the “in vivo ovarian aromatase inactivation” value on rat ovarian aromatase (Example 7, 50 mg/kg body weight/day, regularly cycling BUF/N rats, compared to sesame oil control) is on record as 67.9%. This molecule came in with a tumor incidence in assay [2] (after 41 weeks, single NMU dose, 50 mg/kg/day for one week from 6th week) of 33%. The “average number of tumors per tumor carrying rat” value in assay [2] (protocol II) was 1.5.

The values above are taken from patent publication US4997827A, “Compositions containing 5-α-dihydro-19-norethisterone and derivatives thereof for in vivo inhibition of aromatase” (Medical Foundation of Buffalo, Inc., priority 1989, dated 1991).
